Ten compounds from PubChem BioAssay (NCI) can be followed below.

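Briefly, cells in 96-well plates were exposed to five compound concentrations for 48 h, and endpoints were estimated by linear interpolation. TGI denotes the concentration required for complete inhibition of growth.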

Test systems include NCI-H23 lung; PC-3 prostate; SN12C renal; BT-549 breast; MDA-MB-435; T-47D breast; NCI-H522 lung; SK-MEL-5 melanoma; KM12 colon; SF-268 CNS; NCI/ADR-RES ovarian; OVCAR-4 ovarian; A498 renal; NCI-H226 lung; LOX IMVI melanoma.
What all share (assay): NCI anticancer screen, dose series, 48 h

For `COc1ccc(S(=O)(=O)c2nnc(S(=O)(=O)Cc3ccccc3)s2)cc1`, the TGI amounted to 62.3 µM in the test on NCI-H23 lung; 47.7 µM in the test with PC-3 prostate; 52.9 µM in the test with SN12C renal; 49.8 µM in the test with BT-549 breast; 71.8 µM with MDA-MB-435; 91.9 µM in the test on T-47D breast. For the same compound, the TGI in the test on NCI-H522 lung is 27.1 µM; in the test on SK-MEL-5 melanoma, 34.2 µM; in the test with KM12 colon, above 100 µM; in the test on SF-268 CNS, above 100 µM; in the test with NCI/ADR-RES ovarian it was above 100 µM; with OVCAR-4 ovarian, above 100 µM. Moreover, in the test on A498 renal, the TGI is 39.9 µM.

On to `Cc1cc(S(=O)(=O)Nc2n[nH]c(N)n2)c(SCC(=O)O)cc1Cl`, for which the TGI with NCI-H23 lung, in the test on PC-3 prostate, in the test with SN12C renal, in the test on BT-549 breast, in the test on T-47D breast and in the test with NCI-H522 lung was above 10 µM in each case. The TGI in the test with NCI-H226 lung, with SK-MEL-5 melanoma, with KM12 colon, in the test with LOX IMVI melanoma, with SF-268 CNS and in the test on NCI/ADR-RES ovarian was above 10 µM throughout. The TGI with OVCAR-4 ovarian and in the test on A498 renal was above 10 µM each time.

For the compound `COC(CNC(=O)C(C)NC(=O)/C=C/c1ccccc1)OC` (stereo unspecified), the TGI with NCI-H23 lung, in the test with PC-3 prostate, with SN12C renal, in the test with BT-549 breast, with MDA-MB-435 and in the test with T-47D breast was above 100 µM in each case. The TGI with NCI-H522 lung, in the test with NCI-H226 lung, in the test with SK-MEL-5 melanoma, with KM12 colon, with SF-268 CNS and in the test with NCI/ADR-RES ovarian was above 100 µM throughout.

Consider `CC(O)C1(CNc2cc(Cl)nc(N)n2)CCC1` (stereo unspecified), for which the TGI with NCI-H23 lung, with PC-3 prostate, in the test with SN12C renal, in the test on BT-549 breast, in the test on MDA-MB-435 and in the test on T-47D breast was above 100 µM in each case. Further, the TGI in the test on NCI-H522 lung, in the test with NCI-H226 lung, in the test on SK-MEL-5 melanoma, with KM12 colon, in the test with LOX IMVI melanoma and with NCI/ADR-RES ovarian was above 100 µM throughout. The TGI with OVCAR-4 ovarian was above 100 µM.

For the compound `Nc1ncnc2c1ncn2[C@@H]1C[C@@H]1CO`, the TGI with NCI-H23 lung, in the test with PC-3 prostate, in the test with SN12C renal, in the test on BT-549 breast, in the test with MDA-MB-435 and in the test on T-47D breast was above 100 µM throughout. Besides, the TGI with NCI-H522 lung, in the test with NCI-H226 lung, in the test on KM12 colon, in the test with LOX IMVI melanoma, with NCI/ADR-RES ovarian and in the test with A498 renal was above 100 µM each time.

Take `O=[N+]([O-])/C(C(Cl)=C(Cl)Cl)=C(/Cl)Sc1ccccc1`: the TGI worked out at 4.1 µM in the test with NCI-H23 lung; 4.66 µM in the test on PC-3 prostate; 3.55 µM in the test with SN12C renal; 3.29 µM with MDA-MB-435; 7.47 µM with T-47D breast; 4.42 µM in the test on NCI-H522 lung. The TGI was 24.3 µM in the test with NCI-H226 lung; 4.47 µM in the test with SK-MEL-5 melanoma; 32 µM in the test with KM12 colon; 3.65 µM in the test with LOX IMVI melanoma; 5.71 µM with SF-268 CNS; 2.35 µM in the test on NCI/ADR-RES ovarian. The TGI in the test on OVCAR-4 ovarian was determined as 3.75 µM; in the test with A498 renal it was 4.19 µM.

As to `C/C=C(/C)C(=O)O[C@@H]1CCN2CC[C@H](COC(=O)/C(=C/C)CO)C12` (stereo partly specified), the TGI in the test with NCI-H23 lung, in the test with PC-3 prostate, in the test on SN12C renal, in the test with BT-549 breast, with MDA-MB-435 and in the test with T-47D breast was above 100 µM throughout. The TGI with NCI-H522 lung was above 100 µM; in the test with NCI-H226 lung it was above 100 µM; in the test with SK-MEL-5 melanoma, above 62 µM; in the test with KM12 colon, above 100 µM; in the test with LOX IMVI melanoma, above 100 µM; in the test with SF-268 CNS, above 100 µM. The TGI in the test with NCI/ADR-RES ovarian and with OVCAR-4 ovarian was above 100 µM each time.

`CCCCNC(=S)Nc1nc(C(=O)NNC(=S)Nc2ccccc2)cs1`: the TGI with NCI-H23 lung, in the test on PC-3 prostate, in the test with SN12C renal, with BT-549 breast, in the test with MDA-MB-435 and in the test on T-47D breast was above 100 µM throughout. The TGI with NCI-H226 lung, in the test on SK-MEL-5 melanoma, in the test with KM12 colon, in the test with SF-268 CNS, with NCI/ADR-RES ovarian and in the test on OVCAR-4 ovarian was above 100 µM in each case. The compound also gave a TGI in the test with A498 renal of 68 µM.

Regarding `Cn1cc(NC(=O)Nc2cc(C(=O)Nc3cc(C(=O)Nc4ccc(S(=O)(=O)O)c5cc(S(=O)(=O)O)ccc45)n(C)c3)n(C)c2)cc1C(=O)Nc1cc(C(=O)Nc2ccc(S(=O)(=O)O)c3cc(S(=O)(=O)O)ccc23)n(C)c1`, the TGI in the test on NCI-H23 lung, in the test with PC-3 prostate, in the test with SN12C renal, in the test on BT-549 breast, with MDA-MB-435 and with T-47D breast was above 100 µM throughout. Besides, the TGI in the test on NCI-H522 lung, with NCI-H226 lung, in the test with SK-MEL-5 melanoma, in the test with KM12 colon, in the test on SF-268 CNS and with NCI/ADR-RES ovarian was above 100 µM each time. The same compound gave a TGI in the test with OVCAR-4 ovarian above 100 µM.

As to `Cc1c(N=Nc2ccc(Cl)cc2)c(-c2ccccc2)n(C2OC(CO)C(O)C(O)C2O)c(=S)c1C#N` (stereo unspecified), the TGI was 22.5 µM in the test with NCI-H23 lung; 22.4 µM in the test with PC-3 prostate; 32.5 µM in the test with SN12C renal; 29.5 µM with BT-549 breast; 22.2 µM with MDA-MB-435; 44.2 µM in the test with T-47D breast. In addition, the TGI in the test on SK-MEL-5 melanoma worked out at 25.8 µM; with KM12 colon, 35.4 µM; in the test with LOX IMVI melanoma it was 32.7 µM; in the test on SF-268 CNS, 44.8 µM; in the test with NCI/ADR-RES ovarian it was 32.8 µM; with OVCAR-4 ovarian, 36 µM. This compound also gave a TGI with A498 renal of 21.5 µM.
